Data from US20180273507A1, “CRYSTAL FORMS OF A M1 RECEPTOR POSITIVE ALLOSTERIC MODULATOR” (Merck Sharp & Dohme Corp., priority 2015, published 2018).

Test: Base catalyzed hydrolysis forced degradation, HPLC monitored
Conditions: basic conditions (0.1 N), 24 hours
Procedure: The experiment was conducted on a sample stored at room/ambient temperature and another sample maintained at 60° C.

With `Cc1ccc(Cc2cc3c(=O)n([C@H]4CCCC[C@@H]4O)cnc3c3ccccc23)cn1.O=C(O)/C=C/C(=O)O` [3-[(1S,2S)-2-Hydroxycyclohexyl]-6-[(6-methyl-3-pyridinyl)methyl]benzo-[h]quinazolin-4(3H)-one (2E)-2-butenedioate] the “degradation / loss under basic conditions” value (60° C.) was 1.4% and the “degradation / loss under basic conditions” value (ambient temperature) was 0.2%.
